# Measurements: patent publication US20090238852A1, “METHODS FOR CONTROLLING INTRACELLULAR CALCIUM LEVELS ASSOCIATED WITH AN ISCHEMIC EVENT” (University of Utah Research Foundation, priority 2008, published 2009)
# Test system: rabbit ventricular myocytes
# Experiment: Intracellular calcium [Ca^++]i in ventricular myocytes during paced metabolic ischemia (PMI), Fluo-3 flow cytometry
# Format: cell-based
# Excerpt: Consequently, it prevents intracellular sodium overload and subsequent reverse mode operation of the sodium-calcium exchanger. The effect of 2-O, 3-O desulfated heparin on accumulation of intracellular Ca^++ during ischemia was studied in an adult rabbit ventricular myocyte model previously reported (Boston D R, et al. J Pharmacol Exp Ther 285:716-723, 1998; Li F, et al. J Mol Cell Cardiol 33:2145-2155, 2001). Isolated cardiomyocytes have been validated as reliable models of ischemia (Diaz, R J, Wilson G J. Cardiovasc Res 70:286-296, 2006).
# To produce the model, hearts are removed from albino rabbits (2-3 kg) anesthetized with sodium pentobarbital (65 mg/kg IV). The heart was immediately attached to an aorta cannula. Continuous perfusion of the coronary arteries at 37° C. by a pump (Masterflex, Cole-Parmer Instrument Co., Chicago, Ill.) was initiated at a perfusion pressure of 60 mm Hg. The heart was first perfused with nominally Ca^++-free modified Krebs-Ringer bicarbonate buffered solution (MKRBB, pH 7.40, containing in mmol/L: NaCl 126, KCl 4.4, […], MgCl2 1.0, HEPES 24, probenecid 0.5 and glucose 5) for 10 min, immediately followed by 15-25 min of recirculating perfusion with the same solutions containing 0.3 mg/ml collagenase (Type 2, Worthington Biochemical, Freehold, N.J.), 0.4 mg/mL hyaluronidase (Type-S, Sigma-Aldrich, St. Louis, Mo.) and 50 μmol/L CaCl2. The heart was then detached from the cannula, and the left ventricle was minced and transferred to a 50 mL conical tube with the same solution containing 0.24 mg/mL collagenase, 0.02 mg/mL trypsin and 50 μmol/L Ca^++ for a second digestion. The minced tissue was continuously agitated by gassing the solution with 5% CO2 and 95% O2 to help release isolated myocytes. The resulting supernatant was transferred to another conical tube with the same volume of the same solution containing 0.03 mg/mL of trypsin inhibitor (Sigma-Aldrich). The cell suspension was centrifuged at 5×g for 5 minutes. The supernatant was discarded and cells were resuspended in solution with a higher Ca^++ concentration (200 μmol/L) and incubated in a CO2 incubator (5% CO2, 28° C.) to settle down cells by gravity for 10 min. The same procedure was repeated twice to bring up the Ca^++ concentration slowly (500, then 1000 μmol/L). Calcium step-up solutions were made from MKRBB with 2% albumin, 50 μmol/L CaCl2 mixed with the appropriate amount of minimum essential medium (MEM, Gibco Laboratories, Grand Island, N.Y.). At the end of isolation, cells were filtered with a […] to avoid cell clumping during flow cytometry studies. The yield of rod-shaped viable myocytes averaged 50%. Cells were used for experiments within 4 hours after dissociation.
# In these studies, intracellular calcium concentration [Ca^++]i was measured by flow cytometry. Measurement of isolated mouse and rabbit ventricular myocyte [Ca^2+]i and [Na^+]i by flow cytometry has been described (Zhang et al., J. Cardiovasc. Pharmacol. 51: 443-449 (2008); Li et al., J. Mol. Cell. Cardiol. 33: 2145-2155 (2001)). [Ca^++]i was measured with the Ca^++ sensitive fluorescent probe, Fluo 3-AM (Molecular Probes, Eugene, Oreg.), using a FACScan (Becton-Dickinson, MA). The cells were exposed to 4 μmol/L Fluo-3 AM for 30 min at 37° C. The cells were then separated into aliquots. After 40 min of wash, the cells were exposed to paced metabolic ischemia (MI) for 45 min at 37° C. Metabolic ischemia was accomplished by incubating cells in a glucose-free MKRBB solution (pH 7.40) containing 2 mmol/L sodium cyanide (NaCN) to impair mitochondrial and glycolytic generation of ATP. To reproduce the situation in the beating ischemic heart, during the period of metabolic ischemia, myocytes were placed in a 5-well chamber with equal volumes of myocyte suspensions from the same heart dissociation placed in each well. The chamber was water bathed to maintain temperature at 37° C. and bubbled with 5% CO2 in air to keep myocytes in suspension. […]
substance,measurement,setting,value
"2-O, 3-O desulfated heparin [ODSH]",effect on myocyte [Ca^2+]i during simulated ischemia,"45 min P-MI, ODSH 1, 10, 100 μg/mL, FIG. 3",dose-dependent reduction of [Ca^2+]I
same,further reduction in [Ca^2+]i in the presence of KBR,"ODSH 100 μg/mL with KBR 10 μmol/L, 45 min simulated ischemia, FIG. 4",no significant further reduction in [Ca^2+]i
same,additional effect on Ca^2+ loading during P-MI in the presence of ranolazine,"ODSH 100 μg/ml with ranolazine 10 μM, FIG. 8",no additional effect on Ca^2+ loading
same,[Ca^++]i,"PMI 45 min + ODSH 1 μg/mL, n = 7, PMI alone 1133.6 ± 78.4, Hepes 241.9 ± 23.0",1013.8 ± 69.2 nM
same,[Ca^++]i,"PMI 45 min + ODSH 10 μg/mL, n = 7, PMI alone 1133.6 ± 78.4",739.0 ± 63.8 nM
same,[Ca^++]i,"PMI 45 min + ODSH 100 μg/mL, n = 7, PMI alone 1133.6 ± 78.4",684.3 ± 66.9 nM
same,[Ca^++]i,"Table 6: PMI + ODSH 100 μg/mL, n = 7, PMI alone 985.5 ± 42.7, Hepes 269.6 ± 8.3",688.6 ± 33.4 nM
same,effect on [Ca^2+]i during P-MI,"each alone: ODSH 100 μg/ml, ranolazine 10 μM, FIG. 8, n = 7",reduced [Ca^2+]i to a similar degree
